US9005651B2, “Sustained drug delivery system” (Tohoku University, priority 2009, dated 2015)

Key:
[1] = Low molecular weight drug (FA) slow release from PEGDM:TEGDM sheets; format: physicochemical; conditions: PEGDM:TEGDM 100:0 to 0:100, capsules in PBS
Procedure: Sheets having changed mixing ratios of PEGDM (Mn 750) and TEGDM (Mw 286.3) were prepared to evaluate their low molecular weight drug slow-releasing capability. The low molecular weight drug used sodium fluorescein (FA, a fluorescent contrast agent clinically used) as a model. PEG sheets were prepared in the 6 patterns of PEGDM:TEGDM=100:0, 95:5, 90:10, 80:20, 50:50, and 0:100; FA was capsulated; and the capsules were immersed in PBS to measure the fluorescence intensity at regular intervals. […] The slow-releasing capability was irrespective of the presence of collagen particles.

[2] = Implantation of capsule on the sclera of rabbit's eye (fluorescence of hydatoid, fundus camera, tissue); format: in vivo; conditions: 3 days after implantation
Procedure: A capsule (the collagen particle concentration of its porous PEG sheet: 500 mg/ml) packed with a PEG pellet of FA was implanted on the sclera of the eye of rabbits. One eye of each rabbit was used as a non-implantation control. The conjunctiva was incised 5 mm and the capsule was implanted therethrough into 2 to 15 mm of the corneal limbus. The capsule was fixed by suture. The conjunctiva was finally sutured to terminate the implantation. The hydatoid (100 μl) was collected every other week and the fluorescence intensity thereof was measured using a fluorescence plate reader. Using a fluorescence camera, the fluorochrome in the device implanted on the sclera and the distribution of the pigment slowly released were photographed. […] In FIG. 22, the fluorescences of the cell nucleus (blue fluorescence) and the model drug (green fluorescence) are observed. In FIG. 22, the mark * represents the position in which the PEG capsule was present. […] When the drug passes through RP, the drug is fed to RE. Because RP has a high barrier function, the pigment stops here and is concentrated.

Compound: O=C([O-])c1ccccc1-c1c2ccc(=O)cc-2oc2cc([O-])ccc12.[Na+].[Na+] [FA, sodium fluorescein]
- FA slow-releasing capability versus PEGDM:TEGDM ratio [1]: increased mixing ratio of TEGDM suppressed the FA slow-releasing capability
- tissue fluorescence distribution [2]: strong fluorescence was observed in the sclera (SC) and the subretina (RP)
